Where no end group is shown, it is not given here.
Key:
monocytes = assay: Adhesion and transmigration of pure monocytes on HUVEC on a collagen matrix; assay type: cell-based, human
Description: (§1) Endothelial cells from human umbilical veins (HUVEC) were marked with a red fluorescent dye (Cell Tracker Orange, 1 μl/ml, Molecular Probes, Eugene, Oreg.) and were dispersed on a collagen matrix (Collaborative Biomedical Products, Bedford, Mass.). Upon confluence of the endothelial cells, peripheral mononuclear blood cells (PBMC) (10^5 cells per 25 mm^2) marked with a green fluorescent dye (Cell Tracker Green, 1 μl/ml, Molecular Probes of Messrs. Eugene, Origon) were superimposed. Thereafter, the cells were incubated at 37° C. for twelve hours.
(§2) Adhering cells that had transmigrated into the gel were photographed with a laser-scan microscope, were converted into pixels and were evaluated by means of an “NIH image” according to Gröger et al. (J. Immunol. Method 1999; 222: 101-109).
(§3) It was feasible to determine the number of adherent cells per 0.1 mm^2 such as mentioned under “adhesion”. It was feasible to determine the number of migrated cells per 0.04 mm^3 such as mentioned under “migration”. The mean value of three times three trials was evaluated together with the standard deviation.
The proceedings were in accordance with Example 11, except for pure monocytes being used instead of lymphocytes. 100 μg of NDSK-uPA or 100 μg of NDSK-II, respectively, was added to peptide Aalpha, randomized Aalpha, Bbeta or randomized Bbeta.
The proceedings were in accordance with Example 12, with pure monocytes being used. […] of NDSK-uPA or 100 μg of NDSK-II, respectively, was added to the short peptide salts Aalpha Gly Pro Arg (Pro)—NH2 acetate (Aalpha derivative) or Bbeta Gly His Arg Pro-OH acetate (Bbeta derivative).

lymphocytes = assay: Adhesion and transmigration of pure lymphocytes on HUVEC on a collagen matrix; assay type: cell-based, human; settings: for adhesion / migration: lymphocytes
Description: as §1, §2, §3
Since PBMC substantially consists of a mixture of lymphocytes and monocytes, pure lymphocytes instead of PBMC (as in Examples 8-10) were used in Example 11.
100 μg of NDSK-uPA or 100 μg of NDSK-II, respectively, and Aalpha or Bbeta, respectively, were added to the collagen matrix according to Example 8 comprising endothelial cells and lymphocytes.
The proceedings were in accordance with Example 11, with pure lymphocytes being used. 100 μg of NDSK-uPA or 100 μg of NDSK-II, respectively, was added to the short peptide salts derived from Aalpha Gly Pro Arg (Pro)—NH2 acetate (Aalpha derivative) or derived from Bbeta Gly His Arg Pro-OH acetate (Bbeta derivative).

[1] = test system: human skin transplanted onto the backs of SCID mice, human lymphocytes injected; assay: HU-SCID mouse model: inflammatory sites in transplanted human skin; assay type: in vivo; settings: for number of inflammatory sites: Example 3, 100 μg alone, tail vein, mean +/- SD; for number of inflammatory sites / inflammatory sites: 24 hours; for inflammatory sites: Examples 4-7, 100 μg of peptide + 100 μg of human NDSK-II
Description: Human skin was transplanted onto the backs of SCID mice, and two weeks later human lymphocytes were injected into the peritoneum. The proceedings were according to Petzelbauer et al. (J. Invest. Dermatol. 1996, 107; 576-581). Then, fifteen mice thus prepared were injected in their tail veins with the following:
Twenty-four hours later, the human skin was removed and the number of inflammatory sites, expressed in cells per 0.3 mm^2, was evaluated and the mean value was determined with a standard deviation.

cardiac muscle = assay: Rat cardiac artery occlusion / reperfusion, infarct planimetry
[2] = test system: peripheral mononuclear blood cells (PBMC); assay: Adhesion and transmigration of PBMC on HUVEC on a collagen matrix; assay type: cell-based, human; settings: for adhesion / migration / migration (migrated cells) / adhesion (adherent cells): PBMC; for conclusion: blocking of NDSK-II-induced PBMC adhesion/migration: Examples 9 and 10, with 100 μg NDSK-II; for migration (migrated cells) / adhesion (adherent cells): Example 8, 12 h
Description: as §1, §2, §3
100 μg of NDSK-II and Bbeta or Bbeta randomized were added to the collagen matrix according to Example 8 comprising the suspension of PBMC, and further proceedings were in accordance with Example 8.
100 μg of NDSK-II and Aalpha or Aalpha randomized were added to the collagen matrix according to Example 8 comprising the suspension of PBMC, and further proceedings were in accordance with Example 8.

[3] = Example 14, 100 μg of short peptide + 100 μg NDSK-II
[4] = Example 14, 100 μg of short peptide + 100 mg NDSK-uPA
[5] = Example 13, 100 μg of short peptide + 100 μg NDSK-II
[6] = Example 13, 100 μg of short peptide + 100 μg NDSK-uPA
[7] = Example 13, substance alone, 100 μg
[8] = Example 12, 100 μg of peptide + 100 μg NDSK-II
[9] = Example 12, 100 μg of peptide + 100 μg NDSK-uPA
[10] = Example 12, substance alone, 100 μg
[11] = rat, 800 μg/kg intravenously at reperfusion after 25 min occlusion, 2 hours
[12] = Example 11, 100 μg of peptide + 100 μg NDSK-II
[13] = Example 11, 100 μg of peptide + 100 μg NDSK-uPA
[14] = Example 11, substance alone, 100 μg
[15] = Example 9, 10 μg of peptide + 100 μg NDSK-II
[16] = Example 9, 100 μg of peptide + 100 μg NDSK-II
[17] = Example 9, 1000 μg of peptide + 100 μg NDSK-II
[18] = Example 10, 10 μg of peptide + 100 μg NDSK-II
[19] = Example 10, 100 μg of peptide + 100 μg NDSK-II
[20] = Example 10, 1000 μg of peptide + 100 μg NDSK-II

Molecule: Gly Pro Arg (Pro)—NH2 acetate [Aalpha derivative]
- adhesion (monocytes; [3]): 64 +/− 11 cells per 0.1 mm^2
- migration (monocytes; [3]): 8 +/− 2 cells per 0.04 mm^3
- adhesion (monocytes; [4]): 60 +/− 5 cells per 0.1 mm^2
- migration (monocytes; [4]): 7 +/− 6 cells per 0.04 mm^3
- adhesion (monocytes; Example 14, substance alone): 50 +/− 5 cells per 0.1 mm^2
- migration (monocytes; Example 14, substance alone): 4 +/− 4 cells per 0.04 mm^3
- adhesion (lymphocytes; [5]): 131 +/− 7 cells per 0.1 mm^2
- migration (lymphocytes; [5]): 49 +/− 6 cells per 0.04 mm^3
- adhesion (lymphocytes; [6]): 134 +/− 4 cells per 0.1 mm^2
- migration (lymphocytes; [6]): 48 +/− 5 cells per 0.04 mm^3
- adhesion (lymphocytes; [7]): 77 +/− 4 cells per 0.1 mm^2
- migration (lymphocytes; [7]): 18 +/− 1 cells per 0.04 mm^3

Molecule: Gly His Arg Pro-OH acetate (GHRP-OH; also: acetate salt) [Bbeta derivative, short peptide salt derived from Bbeta]
- adhesion (monocytes; [3]): 68 +/− 7 cells per 0.1 mm^2
- migration (monocytes; [3]): 8 +/− 4 cells per 0.04 mm^3
- adhesion (monocytes; [4]): 61 +/− 11 cells per 0.1 mm^2
- migration (monocytes; [4]): 8 +/− 3 cells per 0.04 mm^3
- adhesion (monocytes; Example 14, substance alone): 52 +/− 7 cells per 0.1 mm^2
- migration (monocytes; Example 14, substance alone): 6 +/− 1 cells per 0.04 mm^3
- adhesion (lymphocytes; [5]): 69 +/− 7 cells per 0.1 mm^2
- migration (lymphocytes; [5]): 14 +/− 5 cells per 0.04 mm^3
- adhesion (lymphocytes; [6]): 70 +/− 8 cells per 0.1 mm^2
- migration (lymphocytes; [6]): 16 +/− 3 cells per 0.04 mm^3
- adhesion (lymphocytes; [7]): 58 +/− 10 cells per 0.1 mm^2
- migration (lymphocytes; [7]): 12 +/− 9 cells per 0.04 mm^3

Molecule: GHRPLDKKREEAPSLRPAPPPISGGGYR [amino acids 1 to 28 of the beta chain of the fibrin]
- number of inflammatory sites [1]: 6+/−1.1 cells per 0.3 mm^2
- inflammatory sites [1]: 14+/−2 per 0.3 mm^2
- conclusion: blocking of lymphocytic inflammation ([1]; Examples 4 to 7, with 100 μg NDSK-II): blocks lymphocytic inflammation
- adhesion (monocytes; [8]): 70 +/− 7 cells per 0.1 mm^2
- migration (monocytes; [8]): 7 +/− 5 cells per 0.04 mm^3
- adhesion (monocytes; [9]): 61 +/− 11 cells per 0.1 mm^2
- migration (monocytes; [9]): 8 +/− 3 cells per 0.04 mm^3
- adhesion (monocytes; [10]): 59 +/− 7 cells per 0.1 mm^2
- migration (monocytes; [10]): 5 +/− 1 cells per 0.04 mm^3
- cardiac muscle threatened because of the vascular occlusion (cardiac muscle; [11]): 60%
- endangered tissue that was dead (cardiac muscle; [11]): 29%
- reduction of dead tissue (cardiac muscle; versus reference rats, p<0.05): 37%
- conclusion: blocking of lymphocytic adhesion and migration induced by NDSK-II and NDSK-uPA (lymphocytes; Example 11): completely blocks
- adhesion (lymphocytes; [12]): 74 +/− 8 cells per 0.1 mm^2
- migration (lymphocytes; [12]): 17 +/− 3 cells per 0.04 mm^3
- adhesion (lymphocytes; [13]): 74 +/− 8 cells per 0.1 mm^2
- migration (lymphocytes; [13]): 19 +/− 2 cells per 0.04 mm^3
- adhesion (lymphocytes; [14]): 58 +/− 18 cells per 0.1 mm^2
- migration (lymphocytes; [14]): 14 +/− 1 cells per 0.04 mm^3
- adhesion [2, 15]: 63 +/− 33 cells per 0.1 mm^2
- migration [2, 15]: 7 +/− 4 cells per 0.04 mm^3
- adhesion [2, 16]: 47 +/− 34 cells per 0.1 mm^2
- migration [2, 16]: 5 +/− 4 cells per 0.04 mm^3
- adhesion [2, 17]: 52 +/− 27 cells per 0.1 mm^2
- migration [2, 17]: 10 +/− 6 cells per 0.04 mm^3
- conclusion: blocking of NDSK-II-induced PBMC adhesion/migration [2]: blocks inflammations

Molecule: GPRVVERHQSACKDSDWPFCSDEDWNYK (cysteine pairing not given here) [amino acids 1 to 28 of the alpha chain of the fibrin]
- number of inflammatory sites [1]: 4+/−1.1 cells per 0.3 mm^2
- inflammatory sites [1]: 21+/−2.2 per 0.3 mm^2
- adhesion (monocytes; [8]): 68 +/− 10 cells per 0.1 mm^2
- migration (monocytes; [8]): 9 +/− 6 cells per 0.04 mm^3
- adhesion (monocytes; [9]): 62 +/− 4 cells per 0.1 mm^2
- migration (monocytes; [9]): 8 +/− 5 cells per 0.04 mm^3
- adhesion (monocytes; [10]): 59 +/− 6 cells per 0.1 mm^2
- migration (monocytes; [10]): 5 +/− 1 cells per 0.04 mm^3
- conclusion: blocking of lymphocytic adhesion and migration induced by NDSK-II and NDSK-uPA (lymphocytes; Example 11): no blocking activity
- adhesion (lymphocytes; [12]): 131 +/− 4 cells per 0.1 mm^2
- migration (lymphocytes; [12]): 44 +/− 4 cells per 0.04 mm^3
- adhesion (lymphocytes; [13]): 131 +/− 4 cells per 0.1 mm^2
- migration (lymphocytes; [13]): 40 +/− 3 cells per 0.04 mm^3
- adhesion (lymphocytes; [14]): 77 +/− 4 cells per 0.1 mm^2
- migration (lymphocytes; [14]): 18 +/− 1 cells per 0.04 mm^3
- adhesion [2, 18]: 69 +/− 12 cells per 0.1 mm^2
- migration [2, 18]: 21 +/− 4 cells per 0.04 mm^3
- adhesion [2, 19]: 73 +/− 13 cells per 0.1 mm^2
- migration [2, 19]: 15 +/− 6 cells per 0.04 mm^3
- adhesion [2, 20]: 70 +/− 6 cells per 0.1 mm^2
- migration [2, 20]: 13 +/− 5 cells per 0.04 mm^3
- conclusion: blocking of NDSK-II-induced PBMC adhesion/migration [2]: blocks the migration of PBMC only partially

B1: FCB-2: negative control; 43 kD fibrinogen cleavage product, Aalpha-chain 148-208, Bbeta-chain 191-305 and gamma-chain 95-265 (protein)
chain 1: KVQHIQLLQKNVRAQLVDMKRLEVDIDIKIRSCRGSCSRALAREVDLKDYEDQQKQLEQVI
chain 2: IPTNLRVLRSILENLRSKIQKLESDVSAQMEYCRTPCTVSCNIPVVSGKECEEIIRKGGETSEMYLIQPDSSVKPYRVYCDMNTENGGWTVIQNRQDGSVDFGRKWDPYKQGFGN
chain 3: NPDESSKPNMIDAATLKSRKMLEEIMKYEASILTHDSSIRYLQEIYNSNNQKIVNLKEKVAQLEAQCQEPCKDTVQIHDITGKDCQDIANKGAKQSGLYFIKPLKANQQFLVYCEIDGSGNGWTVFQKRLDGSVDFKKNWIQYKEGFGHLSPTGTTEFWLGNEKIHLISTQ
- number of inflammatory sites [1]: 9+/−2.1 cells per 0.3 mm^2
- migration (migrated cells) ([2]; 0.1 μg/ml): 6 +/− 4 cells per 0.04 mm^3
- adhesion (adherent cells) ([2]; 0.1 μg/ml, mean +/- SD): 30 +/− 26 cells per 0.1 mm^2
- adhesion (adherent cells) ([2]; 1.0 μg/ml): 10 +/− 10 cells per 0.1 mm^2
- migration (migrated cells) ([2]; 1.0 μg/ml): 3 +/− 2 cells per 0.04 mm^3
- adhesion (adherent cells) ([2]; 10.0 μg/ml): 21 +/− 7 cells per 0.1 mm^2
- migration (migrated cells) ([2]; 10.0 μg/ml): 5 +/− 4 cells per 0.04 mm^3

B2: NDSK: 63 kD fibrinogen fragment, N-terminal disulfide knot; Aalpha-chain 1-51, Bbeta-chain 1–118 and gamma-chain 1-78 (protein)
chain 1: ADSGEGDFLAEGGGVRGPRVVERHQSACKDSD
chain 2: QGVNDNEEGFFSARGHRPLDKKREEAPSLRPAPPPISGGGYRARPAKAAATQKKVERKAPDAGGCLHADPDLGVLCPTGCQLQEALLQ
chain 3: YVATRDNCCILDERFGSYCPTTCGIADFLSTYQTKVDKDLQSLEDILHQVEN
- migration (migrated cells) ([2]; 0.1 μg/ml): 6 +/− 3 cells per 0.04 mm^3
- adhesion (adherent cells) ([2]; 0.1 μg/ml, mean +/- SD): 31 +/− 18 cells per 0.1 mm^2
- adhesion (adherent cells) ([2]; 1.0 μg/ml): 35 +/− 18 cells per 0.1 mm^2
- migration (migrated cells) ([2]; 1.0 μg/ml): 5 +/− 2 cells per 0.04 mm^3
- adhesion (adherent cells) ([2]; 10.0 μg/ml): 36 +/− 24 cells per 0.1 mm^2
- migration (migrated cells) ([2]; 10.0 μg/ml): 6 +/− 3 cells per 0.04 mm^3

— patent publication US7271144B2, “Therapeutic fibrin-derived peptides and uses thereof” (Fibrex Medical Research & Development GmbH, priority 2000, dated 2007)
